Tests used:
15-PGDH = target: T1, 15-PGDH (Homo sapiens, UniProt P15428); experiment: Test on 15-PGDH (spectrophotometric, PGE2/β-NAD, 340 nm); format: biochemical
T1 construct: made in house
T1 sequence (P15428 1-266): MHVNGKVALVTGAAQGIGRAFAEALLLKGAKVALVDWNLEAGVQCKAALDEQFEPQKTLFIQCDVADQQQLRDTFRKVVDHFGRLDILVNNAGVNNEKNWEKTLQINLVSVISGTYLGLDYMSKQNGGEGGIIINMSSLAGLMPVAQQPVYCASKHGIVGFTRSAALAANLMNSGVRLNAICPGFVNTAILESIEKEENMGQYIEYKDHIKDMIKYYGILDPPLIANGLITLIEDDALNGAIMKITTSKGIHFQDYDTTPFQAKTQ
Protocol: The enzyme 15-PGDH is obtained as described in patent application FR 02/05067 filed in the name of L'Oréal, as a suspension in a medium adjusted to a concentration of 0.3 mg/ml and then blocked at −80° C. For the purposes of the test, this suspension is thawed and stored in ice.
In parallel, a 100 mM, pH 7.4 Tris buffer containing 0.1 mM of dithiothreitol (D5545, Sigma-Aldrich, L'isle D'Abeau Chesne, BP 701, 38297, Saint Quentin Fallavier), 1.5 mM of β-NAD (N6522, Sigma-Aldrich, L'isle D'Abeau Chesne, BP 701, 38297, Saint Quentin Fallavier), and 50 μM of prostaglandin E2 (P4172, Sigma-Aldrich, L'isle D'Abeau Chesne, BP 701, 38297, Saint Quentin Fallavier) is prepared.
(§1) 0.965 ml of this buffer (brought to 37° C. beforehand) is introduced into the cuvette of a spectrophotometer (Perkin-Elmer, Lambda 2) thermostatically maintained at 37° C., the measuring wavelength of which is set at 340 nm. 0.035 ml of enzymatic suspension at 37° C. is introduced into the cuvette concomitantly with the recording (corresponding to an increase in the optical density at 340 nm). The maximum reaction rate is recorded.

PGF synthase (PGFS) = target: T2, PGF synthase (PGFS) (Homo sapiens, UniProt P42330); experiment: Test on PGF synthase (spectrophotometric, 9,10-phenanthrenequinone/β-NADPH, 340 nm); format: biochemical; details: concentration that inhibits 50% of the enzymatic activity of PGF synthase
T2 construct: made in house
T2 sequence (P42330 1-323): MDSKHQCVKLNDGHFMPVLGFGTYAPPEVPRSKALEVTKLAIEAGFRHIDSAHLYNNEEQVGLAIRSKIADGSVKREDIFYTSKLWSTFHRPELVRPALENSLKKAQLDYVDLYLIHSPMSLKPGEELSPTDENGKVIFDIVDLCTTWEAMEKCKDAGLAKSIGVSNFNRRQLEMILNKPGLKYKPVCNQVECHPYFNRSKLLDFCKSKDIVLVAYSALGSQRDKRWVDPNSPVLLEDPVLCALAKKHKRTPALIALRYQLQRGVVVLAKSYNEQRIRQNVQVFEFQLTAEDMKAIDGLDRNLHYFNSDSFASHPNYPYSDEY
Protocol: The enzyme PGFS is obtained as described in document FR-A-02/05067, at a concentration of 0.5 mg/ml, as a suspension in a suitable medium, and blocked at −80° C. For the purposes of the test, this suspension is thawed and stored in ice.
In parallel, a 100 mM, pH 6.5 Tris buffer containing 20 μM of 9,10-phenanthrenequinone* (P2896, Sigma-Aldrich, L'isle D'Abeau Chesne, BP 701, 38297, Saint Quentin Fallavier) and 100 μM of β-NADPH (N1630, Sigma-Aldrich, L'isle D'Abeau Chesne, BP 701, 38297, Saint Quentin Fallavier) is prepared in a brown flask (protected from light).
*A stock solution with a titre of 1 mM is prepared in absolute ethanol and brought to 40° C.; the flask is placed in an ultrasound cuvette to facilitate the dissolution of the product.
as §1, with “0.950” for “0.965”, “0.05” for “0.035”, “a reduction” for “an increase”
The test values (containing compound (I)) are compared with the control value (without compound (I)); the results indicated represent the percentage of inhibition of PGFS at a concentration of 50 μM.

Selectivity (15-PGDH; IC50fs/IC50dh ratio (PGF synthase vs 15-PGDH)): >7.5 | IC50 (15-PGDH; concentration that inhibits 50% of the enzymatic activity of 15-PGDH): 10 µM | IC50 (PGF synthase (PGFS)): > 75 µM
SMILES: COc1ccc(-n2ncc(C(=O)N3CCN(C)CC3)c2C)cc1 [Compound 2]
